Results: ChEMBL document CHEMBL4342484, “Structure-Activity Relationship for the Oxadiazole Class of Antibacterials” (ACS Med Chem Lett, 2020)
≈ marks a conversion by molar mass, not a printed value. Values belong to the compound of their own block, whether it stands above or below them.

Columns and labels:
[1] = tested on: Staphylococcus aureus; assay: Antibacterial activity against Staphylococcus aureus ATCC 29213 by broth microdilution method; format: functional
[2] = tested on: HepG2; assay: Cytotoxicity against human HepG2 cells assessed as reduction in cell viability by XTT assay; format: cell-based
[3] = Hemolytic activity in human RBC relative to control; format: ADME, cell-based, Erythrocyte; conditions: red blood cells (erythrocytes), read-out: Activity
[4] = Plasma protein binding in human at […] incubated for 2 hrs by UPLC analysis; format: ADME, cell-free; conditions: read-out: PPB (converted)
[5] = tested on: Staphylococcus aureus; assay: Antibacterial activity against vancomycin-resistant Staphylococcus aureus VRS2 clinical isolate by broth microdilution method; format: functional
[6] = tested on: Staphylococcus epidermidis; assay: Antibacterial activity against Staphylococcus epidermidis ATCC 35547 by broth microdilution method; format: functional
[7] = tested on: Bacillus cereus; assay: Antibacterial activity against Bacillus cereus ATCC 13061 by broth microdilution method; format: functional
[8] = tested on: Staphylococcus aureus; assay: Antibacterial activity against Staphylococcus aureus NRS100 (COL) by broth microdilution method; format: functional
[9] = tested on: Enterococcus faecium; assay: Antibacterial activity against vancomycin-resistant Enterococcus faecium 106 clinical isolate by broth microdilution method; format: functional
[10] = tested on: Staphylococcus aureus; assay: Antibacterial activity against Staphylococcus aureus NRS120 by broth microdilution method; format: functional
[11] = tested on: Enterococcus faecium; assay: Antibacterial activity against Enterococcus faecium NCTC 7171 by broth microdilution method; format: functional
[12] = tested on: Enterococcus faecium; assay: Antibacterial activity against vancomycin-susceptible Enterococcus faecium 119-39A clinical isolate by broth microdilution method; format: functional
[13] = tested on: Staphylococcus aureus; assay: Antibacterial activity against vancomycin-resistant Staphylococcus aureus VRS1 clinical isolate by broth microdilution method; format: functional
[14] = tested on: Staphylococcus aureus; assay: Antibacterial activity against Staphylococcus aureus ATCC 27660 by broth microdilution method; format: functional
[15] = tested on: Staphylococcus haemolyticus; assay: Antibacterial activity against Staphylococcus haemolyticus ATCC 29970 by broth microdilution method; format: functional
[16] = tested on: Staphylococcus aureus; assay: Antibacterial activity against Staphylococcus aureus N315 (NRS70) by broth microdilution method; format: functional
[17] = tested on: Staphylococcus aureus; assay: Antibacterial activity against Staphylococcus aureus NRS119 by broth microdilution method; format: functional
[18] = tested on: Bacillus licheniformis; assay: Antibacterial activity against Bacillus licheniformis ATCC 12759 by broth microdilution method; format: functional
[19] = tested on: Enterococcus faecalis; assay: Antibacterial activity against vancomycin-susceptible Enterococcus faecalis 201 clinical isolate by broth microdilution method; format: functional
[20] = tested on: Enterococcus faecalis; assay: Antibacterial activity against Enterococcus faecalis ATCC 29212 by broth microdilution method; format: functional

Compound: CC(=O)c1ccc(Oc2ccc(-c3noc(-c4n[nH]cc4Cl)n3)cc2)cc1
MIC [1]: ≥ 128 µg/mL

Compound: Oc1ccc(-c2nc(-c3ccc(OC(F)(F)F)cc3)no2)cc1
IC50 [2]: 84.9 µg/mL (≈ 263 µM)
MIC [1]: 1 µg/mL (≈ 3.1 µM)
hemolysis [3]: 16%

Compound: Oc1ccc(-c2nc(-c3ccc(Oc4ccccn4)cc3)no2)cc1
MIC [1]: ≥ 128 µg/mL

Compound: Cl.Clc1c[nH]nc1-c1nc(-c2ccc(OC3CCCNC3)cc2)no1 (stereo not drawn)
MIC [1]: ≥ 128 µg/mL

Compound: CC(=O)NC[C@H]1CN(c2ccc(N3CCOCC3)c(F)c2)C(=O)O1 [LINEZOLID]
MIC [5]: 1 µg/mL (≈ 2.96 µM)
MIC [6]: 0.5 µg/mL (≈ 1.48 µM)
MIC [7]: 0.5 µg/mL (≈ 1.48 µM)
MIC [8]: 1 µg/mL (≈ 2.96 µM)
MIC [9]: 1 µg/mL (≈ 2.96 µM)
MIC [10]: 32 µg/mL (≈ 94.9 µM)
MIC [11]: 1 µg/mL (≈ 2.96 µM)
MIC [12]: 1 µg/mL (≈ 2.96 µM)
MIC [13]: 1 µg/mL (≈ 2.96 µM)
MIC [14]: 1 µg/mL (≈ 2.96 µM)
MIC [15]: 1 µg/mL (≈ 2.96 µM)
MIC [16]: 1 µg/mL (≈ 2.96 µM)
MIC [17]: 32 µg/mL (≈ 94.9 µM)
MIC [18]: 0.5 µg/mL (≈ 1.48 µM)

Compound: Cl.NC1CCC(Oc2ccc(-c3noc(-c4ccc(O)cc4)n3)cc2)CC1 (stereo not drawn)
MIC [1]: ≥ 128 µg/mL

Compound: CN1[C@@H]2CC[C@@H]1CC(Oc1ccc(-c3noc(-c4ccc(O)cc4)n3)cc1)C2 (stereo partly drawn)
MIC [1]: 32 µg/mL (≈ 84.8 µM)

Compound: CS(=O)(=O)Oc1ccc(-c2noc(-c3ccc(O)cc3)n2)cc1
MIC [1]: ≥ 128 µg/mL

Compound: N#Cc1ccc(Oc2ccc(-c3noc(-c4n[nH]cc4Cl)n3)cc2)cc1
MIC [1]: 128 µg/mL (≈ 352 µM)

Compound: CC(C)(C)Oc1ccc(-c2noc(-c3ccc(O)cc3)n2)cc1
MIC [1]: ≥ 128 µg/mL

Compound: Nc1ccccc1Oc1ccc(-c2noc(-c3ccc(O)cc3)n2)cc1
MIC [1]: ≥ 128 µg/mL

Compound: COc1ccc(Oc2ccc(-c3noc(-c4ccc(O)cc4)n3)cc2)cc1
MIC [1]: 2 µg/mL (≈ 5.55 µM)

Compound: CN[C@H](CC(C)C)C(=O)N[C@H]1C(=O)N[C@@H](CC(N)=O)C(=O)N[C@H]2C(=O)N[C@H]3C(=O)N[C@H](C(=O)N[C@H](C(=O)O)c4cc(O)cc(O)c4-c4cc3ccc4O)[C@H](O)c3ccc(c(Cl)c3)Oc3cc2cc(c3O[C@@H]2O[C@H](CO)[C@@H](O)[C@H](O)[C@H]2O[C@H]2C[C@](C)(N)[C@H](O)[C@H](C)O2)Oc2ccc(cc2Cl)[C@H]1O [VANCOMYCIN]
MIC [5]: 32 µg/mL (≈ 22.1 µM)
MIC [19]: 1 µg/mL (≈ 0.69 µM)
MIC [13]: 64 µg/mL (≈ 44.2 µM)
MIC [15]: 4 µg/mL (≈ 2.76 µM)
MIC [20]: 2 µg/mL (≈ 1.38 µM)

Compound: CC(=O)NCCOc1ccc(-c2noc(-c3ccc(O)cc3)n2)cc1
MIC [1]: > 128 µg/mL

Compound: CN(C)C(=O)Oc1ccc(-c2noc(-c3ccc(O)cc3)n2)cc1
MIC [1]: ≥ 128 µg/mL

Continued, in another order:

MIC [1]: 8 µg/mL (≈ 18.9 µM)
Compound: Oc1ccc(-c2nc(-c3ccc(Oc4ccccc4CBr)cc3)no2)cc1

MIC [1]: ≥ 128 µg/mL
Compound: FC(F)(F)Oc1ccc(-c2noc(-c3n[nH]cc3Cl)n2)cc1

MIC [1]: 16 µg/mL (≈ 46.2 µM)
Compound: Oc1ccc(Oc2ccc(-c3noc(-c4ccc(O)cc4)n3)cc2)cc1

MIC [1]: 128 µg/mL (≈ 356 µM)
Compound: CN1CCCC(Oc2ccc(-c3noc(-c4n[nH]cc4Cl)n3)cc2)C1 (stereo not drawn)

MIC [1]: ≥ 128 µg/mL
Compound: COc1ccc2oc3ccc(-c4noc(-c5ccc(O)cc5)n4)cc3c2c1

MIC [1]: 4 µg/mL (≈ 9.38 µM)
Compound: O=C(c1cccc(Oc2ccc(-c3noc(-c4ccc(O)cc4)n3)cc2)c1)C(F)(F)F

MIC [1]: 2 µg/mL (≈ 4.38 µM)
Compound: Oc1ccc(-c2nc(-c3ccc(Oc4ccccc4I)cc3)no2)cc1

MIC [1]: 1 µg/mL (≈ 2.45 µM)
fraction unbound at 2 h [4]: 0.022
Compound: Clc1ccc(Oc2ccc(-c3noc(-c4n[nH]cc4Cl)n3)cc2)cc1Cl
IC50 [2]: 17.2 µg/mL (≈ 42.2 µM)
hemolysis [3]: 1.8%

MIC [1]: ≥ 128 µg/mL
Compound: COc1ccc(-c2noc(-c3n[nH]cc3Cl)n2)cc1

MIC [1]: 1 µg/mL (≈ 2.15 µM)
fraction unbound at 2 h [4]: 0.095
Compound: Clc1c[nH]nc1-c1nc(-c2ccc(Oc3ccc(I)cc3)cc2)no1
IC50 [2]: 30.7 µg/mL (≈ 66.1 µM)
hemolysis [3]: 3.1%

MIC [1]: ≥ 128 µg/mL
Compound: CC(C)(C)OC(=O)NC1CCC(Oc2ccc(-c3noc(-c4ccc(O)cc4)n3)cc2)CC1 (stereo not drawn)

MIC [1]: 2 µg/mL (≈ 5.39 µM)
Compound: [N-]=[N+]=Nc1ccccc1Oc1ccc(-c2noc(-c3ccc(O)cc3)n2)cc1

MIC [1]: ≥ 128 µg/mL
Compound: Oc1ccc(-c2nc(-c3ccc4oc5ccc(C(F)(F)F)cc5c4c3)no2)cc1

MIC [1]: 4 µg/mL (≈ 9.45 µM)
Compound: Oc1ccc(-c2nc(-c3ccc(Oc4cccc(CBr)c4)cc3)no2)cc1

MIC [1]: 4 µg/mL (≈ 9.77 µM)
Compound: Oc1ccc(-c2nc(-c3ccc(Oc4cccc(Br)c4)cc3)no2)cc1

MIC [1]: ≥ 128 µg/mL
Compound: CN(C)C(=O)CCOc1ccc(-c2noc(-c3ccc(O)cc3)n2)cc1

MIC [1]: 2 µg/mL (≈ 4.83 µM)
fraction unbound at 2 h [4]: 0.002
Compound: Oc1ccc(-c2nc(-c3ccc(Oc4ccc(OC(F)(F)F)cc4)cc3)no2)cc1
IC50 [2]: 16.9 µg/mL (≈ 40.8 µM)
hemolysis [3]: 2.1%

MIC [1]: 64 µg/mL (≈ 171 µM)
Compound: O=C(O)c1ccc(Oc2ccc(-c3noc(-c4ccc(O)cc4)n3)cc2)cc1

MIC [1]: 0.5 µg/mL (≈ 1.33 µM)
fraction unbound at 2 h [4]: 0.011
Compound: Fc1ccc(Oc2ccc(-c3noc(-c4n[nH]cc4Cl)n3)cc2)cc1F
IC50 [2]: 17.7 µg/mL (≈ 47.2 µM)
hemolysis [3]: 1.3%

MIC [1]: 4 µg/mL (≈ 8.77 µM)
Compound: Oc1ccc(-c2nc(-c3ccc(Oc4ccc(I)cc4)cc3)no2)cc1

MIC [1]: 64 µg/mL (≈ 182 µM)
Compound: CN1CCCC(Oc2ccc(-c3noc(-c4ccc(O)cc4)n3)cc2)C1 (stereo not drawn)

MIC [1]: 16 µg/mL
Compound: Cl.Oc1ccc(-c2nc(-c3ccc(OC4CCNC4)cc3)no2)cc1 (stereo not drawn)
